The record followed here is patent publication US9446015B2, “Quinone based nitric oxide donating compounds for ophthalmic use” (NICOX SCIENCE IRELAND, priority 2012, dated 2016).

Each structure is given as a SMILES string.

As usually defined, the IC50 is the concentration needed to halve the response being measured.

Series [1] relates to lipidic peroxidation of membrane lipids in rat hepatocytes (hepatic microsomal membranes). The experiment in a line: In vitro antioxidant activity (TBARS test). It counts as biochemical. The settings on record: Method A (ADP-FeCl3 and NADPH); inhibition of TBARS production after 30 min; read-out: Antioxidant activity IC50 μM (CL 95%). Here is the method: The antioxidant properties of compounds (6) (disclosed in example 1) and compound (23) (disclosed in example 19) and reference antioxidant compounds were assessed after NADPH-induced lipidic peroxidation of membrane lipids in rat hepatocytes using the detection of 2-thiobarbituric acid reactive substances (TBARS) by visible spectroscopy.
Hepatic microsomal membranes from male Wistar rats (200-250 g) were prepared by differential centrifugation (8000 g, 20 min; 120000 g, 1 h) in a HEPES/sucrose buffer (10 mM, 250 mM, pH 7.4) and stored at −80° C. Incubation was performed at 37° C. in a Tris-HCl/KCl (100 mM/150 mM, pH 7.4) containing microsomal membranes (2 mg prot/mL), sodium ascorbate (100 μM), and DMSO solutions of the tested compounds. Lipid peroxidation was initiated by adding ADP-FeCl3 and NADPH (Method A) or 2.5 μM FeSO4 (Method B) (as described by Boschi D. et al., J. Med. Chem. 2006, 49:2886-2897). Aliquots were taken from the incubation mixture at 5, 15, and 30 min and treated with trichloroacetic acid (TCA) 10% w/v. Lipid peroxidation was assessed by spectrophotometric (543 nm) determination of the TBARS consisting mainly of malondialdehyde (MDA). TBARS concentrations (expressed in nmol/mg protein) were obtained by interpolation with a MDA standard curve. The antioxidant activity of tested compounds was evaluated as the percent inhibition of TBARS production with respect to control samples, using the values obtained after 30 min of incubation. IC50 values were calculated by nonlinear regression analysis.

Series [2] concerns rat L-NAME-induced hypertension. Put plainly: Systolic blood pressure in rat L-NAME-induced hypertension, single oral dose. It counts as in vivo. As to conditions: Comp. (6) 100 mg/kg oral; 3 hours. The protocol: To assess the in vivo NO-dependent activity, Compound (6) was evaluated for systolic blood pressure (SBP) reduction efficacy in a rat model of NO-deprivation induced by L-NAME and compared with 5-ISMN.
Fasted male SD rats (250-300 g, n=3-5 per group), obtained from Harlan Italy (Correzzana, Milan, Italy) were orally treated with tested compounds or vehicle (DMSO:Methocel 1% 2/98 v/v) in a total volume of 4 ml/kg by gavage. At each time point (1, 3, 6 and 24 h) animals were deeply anesthetized with Zoletil® 100 (3 mg/kg), given intramuscularly. Thereafter, a pressure catheter (Samba Sensors, Harvard Apparatus, UK) was introduced into the common carotid artery for central blood pressure measurement. Pressure transducer was connected to a personal computer, in order to allow real time monitor of the pressure tracing. After 10 minutes of basal recording, L-NAME (50 mg/kg) was administered intraperitoneally and the effect on SBP monitored. When the SBP stabilized (5 minutes without variations) the recording was stopped. To further confirm that functional activity was NO-dependent, at each time point blood ^15N-nitrite levels were measured following the procedure described in Example 12.

Series [3] relates to isolated aortas from rats. The experiment in a line: Ex vivo tolerance evaluation, vascular response of isolated rat aortas. The settings on record: 5-day oral treatment; 5-ISMN 30 mg/kg, Compound (6) 100 mg/kg. It counts as cell-based. Here is the method: (§1) Thoracic aortas from male New Zealand rabbits or male Sprague Dawley (SD) were used. The aortas were placed immediately in Krebs-HEPES buffer (pH 7.4; composition mM: NaCl 130.0, KCl 3.7, NaHCO3 14.9, KH2PO4 1.2, MgSO4.7H2O 1.2, Glucose 11.0, HEPES 10.0, CaCl2.2H2O 1.6). Connective tissue was removed and aortas were cut into ring segments (4-5 mm in length). Each ring was placed in a 5 mL tissue bath filled with Krebs-HEPES buffer (37° C.) aerated with 95% O2 and 5% CO2 and was attached to a force transducer (Grass FT03), connected to a BIOPAC MP150 System for measurement of the isometric tension. Preparations were allowed to equilibrate for 1 h at a resting tension of 2 g for rabbit aortas and 1 g for rat aortas with changes of the buffer every 15 min. Then the rings were stimulated by exposure to 90 mM KCl (3 times) with intervening washings.
(§2) Rat aorta. After equilibration, rat aortas were precontracted with KCl (90 mM) and, when the contraction was stable, a cumulative concentration-response curve to acetylcholine (ACh, 0.01-100 μM) was added. After washout, the rings were precontracted again with KCl (90 mM). When a steady-state level of contraction was obtained, a cumulative concentration-response curve to the tested compounds (0.01-100 μM) was obtained.
(§3) Data analysis. Results are given as mean±SEM. Vascular responses are expressed as percentage relaxation and plotted vs concentration. The sensitivity of isolated aorta to different vasodilators is expressed as the concentration that elicited 50% of the maximal responses (EC50). Responses are quantified in terms of EC50 and Emax (maximal vasodilating effect) values, obtained from the concentration-response curve by nonlinear curve fitting, using GraphPad software.
Tolerance to nitrate was further investigated assessing the vascular effects of Compound (6) following repeated treatment compared with 5-ISMN. The vascular response to the compound itself was assessed on isolated aortas from rats orally treated for 5 days with Compound (6) (100 mg/kg). The vascular response was performed as described in Example 6.
Vascular responses were performed 1 h (ISMN) or 3 h (Compound (6)) after the last administration, the concentrations of tested compound that elicited the 50% of the maximal responses (EC50) are shown in Table 4.

In series [4] the test system is endothelial-dependent vasodilation of rat aortas. Put plainly: Endothelial dysfunction evaluation, vascular response to acetylcholine. The format is cell-based. The settings on record: 5-day treatment; 5-ISMN 30 mg/kg, Compound (6) 100 mg/kg. The protocol: as §1, §2, §3
Endothelial-dependent vasodilation (vascular response to acetylcholine, ACh) was assessed following 5-day treatment with Compound (6) (100 mg/kg) or 5-ISMN (30 mg/kg). A relaxant response to ACh indicated the presence of a functional endothelium. The vascular response was performed as described in Example 6.

Consider `COC1=C(OC)C(=O)C(CCCCCCCCCCO[N+](=O)[O-])=C(C)C1=O` [Compound (6), 10-(4,5-dimethoxy-2-methyl-3,6-dioxocyclohexa-1,4-dienyl)decyl nitrate], for which the IC50 in series [1] stood at 2 µM. The “Delta vs basal (mmHg), systolic blood pressure” value in series [2] stood at 14 ± 3.8 mmHg. Further, the “vascular sensitivity of aortas of treated animals to the compound itself versus vehicle/control arteries” value in series [3] is recorded as “showed the same sensitivity”. Also, the “effect on endothelial-dependent vasorelaxation (response to ACh)” value in series [4] is “did not modify endothelial-dependent vasorelaxation”.
